Key:
Test in all cases: 3' UTR reporter interaction score (median-centred robust z-score of log2 firefly/Renilla activity); higher = less repression of the 3' UTR reporter
Details in all cases: HEK293T; 48 h
BRCA2 = test system: BRCA2
Method in brief: (§1)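 Using DharmaFECT Duo, HEK293T cells (10,000/well, 96-well plates) were co-transfected with 2.5 pmol miRNA mimic, 100 ng firefly luc2P reporter containing the gene's 3' UTR and 20 ng Renilla pRL-TK control, and dual-luciferase activity was read 48 h later. The interaction score is the log firefly/Renilla ratio as a per-plate robust z-score (median, median absolute deviation), median-centred per miRNA, averaged over at least two independent screens; lower, more negative values indicate interaction.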

EZH2 = test system: EZH2
Method in brief: as §1

FBXW7 = test system: FBXW7
Method in brief: as §1

HRAS = test system: HRAS
Method in brief: as §1

MYB = test system: MYB
Method in brief: as §1

MYCN = test system: MYCN
Method in brief: as §1

MYC = test system: MYC
Method in brief: as §1

MYT1L = test system: MYT1L
Method in brief: as §1

NOTCH1 = test system: NOTCH1
Method in brief: as §1

PHF6 = test system: PHF6
Method in brief: as §1

PHOX2B = test system: PHOX2B
Method in brief: as §1

RB1 = test system: RB1
Method in brief: as §1

TP53 = test system: TP53
Method in brief: as §1

ZEB2 = test system: ZEB2
Method in brief: as §1

Sequence | 3' UTR reporter interaction score (BRCA2) | 3' UTR reporter interaction score (EZH2) | 3' UTR reporter interaction score (FBXW7) | 3' UTR reporter interaction score (HRAS) | 3' UTR reporter interaction score (MYB) | 3' UTR reporter interaction score (MYCN) | 3' UTR reporter interaction score (MYC) | 3' UTR reporter interaction score (MYT1L) | 3' UTR reporter interaction score (NOTCH1) | 3' UTR reporter interaction score (PHF6) | 3' UTR reporter interaction score (PHOX2B) | 3' UTR reporter interaction score (RB1) | 3' UTR reporter interaction score (TP53) | 3' UTR reporter interaction score (ZEB2)
UGAGAACUGAAUUCCAUGGGUU | -1.66 | 0.673 | -0.989 | -0.164 | 1.11 | 0.702 | -0.0139 | 0.806 | -0.245 | 1.46 | -1.1 | -0.62 | -0.136 | 1.41
AUGUAUGUGUGCAUGUGCAUG | -0.994 | 1.67 | 0.682 | 0.472 | -0.0409 | 0.324 | -1.3 | -0.904 | -0.54 | -1.08 | -0.089 | -1.83 | 0.0318 | -0.0851
UCAGGCUCAGUCCCCUCCCGAU | 0.841 | 0.0569 | 0.573 | -0.122 | -1.88 | -0.567 | 0.0353 | -0.304 | -0.181 | 0.0613 | 0.106 | 0.0824 | 0.0121 | 1.33
GGCGGAGGGAAGUAGGUCCGUUGGU | 0.242 | 0.332 | -0.817 | -0.537 | 0.0558 | -0.331 | -0.0304 | 0.0209 | 0.067 | 0.0679 | -1.42 | 0.267 | -0.152 | 0.059
AUUCUAAUUUCUCCACGUCUUUG | -0.103 | -4.24 | -0.826 | 0.632 | 0.162 | 0.587 | 0.0131 | 0.697 | -0.432 | -1.02 | 0.107 | -2.85 | 0.345 | -0.49
CUAAUAGUAUCUACCACAAUAAA | 0.274 | 0.167 | 0.465 | -0.78 | 1.16 | 0.604 | -0.306 | -0.606 | 0.264 | -0.303 | 0.231 | -0.459 | -0.375 | 0.675
UGGUGGGCCGCAGAACAUGUGC | -0.495 | -0.375 | 1.65 | -0.926 | -0.29 | 0.848 | 0.0166 | 1.92 | -1.38 | -0.487 | 0.685 | -1.35 | 0.539 | 0.648
UAAAGCUAGAUAACCGAAAGU | 1.05 | 0.346 | -0.801 | 0.407 | 0.558 | -1.46 | 0.416 | -1.97 | 1.01 | -0.609 | 0.965 | 0.722 | 0.374 | -0.694
UUUGGCAAUGGUAGAACUCACA | -0.0444 | 0.322 | -2.86 | -0.139 | -1.17 | -0.0764 | -0.026 | 0.203 | -0.441 | -0.697 | 0.438 | 0.469 | 0.0472 | 0.837
AAAGUGCCUCCUUUUAGAGUGU | -0.0588 | -0.239 | 0.988 | 0.107 | -0.416 | 1.27 | 0.329 | 0.764 | 0.0165 | 1.02 | -1.07 | -0.21 | -0.0121 | 0.00481
CAAAGAGGAAGGUCCCAUUAC | -0.346 | -0.46 | 0.456 | 0.586 | 0.328 | 0.419 | -0.255 | -0.262 | -0.106 | -0.348 | -0.488 | -0.878 | -1.21 | 1.21
AUCGCUGCGGUUGCGAGCGCUGU | -2.3 | -1.15 | 0.301 | -1.73 | 1.13 | 0.0647 | 0.0173 | 1.61 | -0.324 | 2.14 | 2.38 | -0.265 | -0.536 | 0.885
UCCCUGUCCUCCAGGAGCUCA | -0.604 | 0.643 | 0.105 | 0.998 | 0.312 | 0.194 | 0.568 | -0.918 | -0.622 | -1.54 | -1.29 | -0.85 | 0.159 | -0.151
AGUGACAUCACAUAUACGGCAGC | -1.13 | -0.788 | -1.31 | -0.649 | 0.233 | 0.321 | -0.366 | 0.969 | 0.273 | 0.28 | 0.805 | 0.945 | -0.15 | 1.55
GAAGGCGCUUCCCUUUAGAGC | 0.0383 | -1.42 | 0.412 | -1.63 | 0.182 | 0.218 | -0.899 | 0.364 | -0.268 | 0.189 | 1.35 | 0.388 | -0.514 | 0.676
AAAGCGCUUCCCUUUGCUGGA | -0.221 | 0.396 | 0.199 | -0.256 | -0.491 | -0.601 | -0.245 | 0.0314 | 0.538 | 0.797 | 0.212 | -0.977 | -1.12 | 0.684
AGACCAUGGGUUCUCAUUGU | -2.41 | 0.304 | -0.214 | -0.0387 | -0.2 | 0.149 | 0.53 | 0.673 | -0.0186 | 1.61 | -1.43 | -1.2 | -0.82 | -1.1

Sequence | 3' UTR reporter interaction score (BRCA2) | 3' UTR reporter interaction score (EZH2) | 3' UTR reporter interaction score (FBXW7) | 3' UTR reporter interaction score (HRAS) | 3' UTR reporter interaction score (MYB) | 3' UTR reporter interaction score (MYCN) | 3' UTR reporter interaction score (MYC) | 3' UTR reporter interaction score (MYT1L) | 3' UTR reporter interaction score (NOTCH1) | 3' UTR reporter interaction score (PHF6) | 3' UTR reporter interaction score (PHOX2B) | 3' UTR reporter interaction score (RB1) | 3' UTR reporter interaction score (TP53) | 3' UTR reporter interaction score (ZEB2)
AACAUUCAACGCUGUCGGUGAGU | 0.243 | -0.146 | -0.842 | -0.301 | 0.057 | -0.12 | 0.478 | -0.0848 | 0.193 | -0.891 | -0.00434 | 0.404 | 0.784 | -0.18
GCUAGUCCUGACUCAGCCAGU | 4.86e-17 | -0.186 | 0.368 | -0.409 | 0.624 | 0.0989 | -0.713 | 0.167 | -0.242 | -0.0579 | 0.384 | 0.4 | -0.219 | 0.364
AAGUGCUGUCAUAGCUGAGGUC | 0.528 | -0.608 | 0.564 | 0 | -0.62 | 1.22 | 0.212 | -0.819 | -0.478 | 0.918 | -0.113 | 1.65 | 0.0875 | 1.38
UCGGGGAUCAUCAUGUCACGAG | 0.268 | -0.077 | 0.568 | -0.912 | -0.226 | -0.0751 | -1.16 | -0.88 | -0.696 | 1.52 | 0.234 | 1.06 | -0.0214 | 1.06
ACUUCACCUGGUCCACUAGCCGU | -0.412 | -0.456 | -2.1 | -0.736 | 0.743 | 0.0552 | -0.039 | 1.42 | 0.897 | 0.576 | -0.0718 | 1.16 | -0.237 | 0.694
UUUCCUAUGCAUAUACUUCUUU | 0.202 | -0.62 | 0.0806 | -0.802 | 0.476 | 0.517 | 0.151 | 1.98 | -2.15 | -0.444 | -0.604 | 0.265 | -0.504 | 0.911
CAGUGCAAUGAUGAAAGGGCAU | -0.463 | -0.471 | 0.958 | -0.234 | -1.75 | 1.64 | 0.674 | 0.286 | 0.857 | 0.644 | -0.853 | 1.03 | -0.295 | -0.474
AGAGGUAGUAGGUUGCAUAGU | 0.509 | -3.25 | -0.0422 | 1 | 0.728 | -3.2 | -2.12 | -0.701 | -0.39 | 0.956 | -0.956 | -0.186 | 0.943 | -0.685
AAUCAUACAGGGACAUCCAGUU | -0.401 | 1.15 | 0.98 | 0.163 | 0.0607 | -0.994 | 0.273 | 0.474 | -0.77 | -0.265 | 1.38 | -0.451 | -0.0235 | -0.725
UGAGGUAGUAGAUUGUAUAGUU | 0.246 | -5.6 | 0.329 | 0.942 | 0.461 | -4.33 | -2.66 | 0.00725 | -0.987 | 0.283 | 0.189 | 0.338 | -0.262 | -0.843
UAAGGUGCAUCUAGUGCAGAUA | -0.222 | 0.286 | 0.264 | -0.481 | 0.537 | -0.0167 | 0.199 | 0.136 | 0.283 | -0.951 | -0.0776 | -0.171 | 0.495 | -0.0823
ACAGCAGGCACAGACAGGCAG | -0.408 | -1.08 | -0.152 | -0.306 | -0.134 | -0.201 | -0.0632 | -1.17 | 0.191 | 1.37 | 0.072 | 0.215 | -0.292 | 1.63
UAUUGCACUUGUCCCGGCCUG | 1.75 | -0.214 | -2.99 | 0.114 | -1.54 | 1.23 | 0.754 | -1.81 | -0.177 | 0.0608 | 0.517 | 1.41 | 0.235 | -2.03
GUCAACACUUGCUGGUUUCCUC | 1.05 | 1.25 | 1.04 | -1.53 | -0.366 | -0.83 | 1.11 | -2.13 | -0.696 | 0.545 | -0.934 | 0.731 | -0.391 | -0.604
AGCUGGUGUUGUGAAUC | -0.493 | -0.157 | -0.398 | -0.334 | 0.129 | 0.275 | 0.179 | 0.16 | 0.152 | -0.508 | 0.54 | -0.243 | 0.136 | 0.43
UGAGAACUGAAUUCCAUAGGCU | -1.45 | 0.351 | -1.39 | -0.193 | 0.897 | 0.165 | 0.179 | 0.753 | -0.287 | 0.668 | -0.835 | -0.182 | -0.401 | 0.486
AUCCUUGCUAUCUGGGUGCUA | -0.448 | -0.755 | 0.895 | -3.26 | 0.799 | 1.2 | 0.118 | 0.363 | 0.113 | -1.61 | -0.723 | -2.46 | 0.763 | -0.105

— the supplement of paper PMC5844555
